Assay results as given in article PMC7094737 (Journal of Molecular Biology, 2008).
Substitutions are numbered along the chain they refer to.

Experiments:
MDO1 [1] = biological target: T1, MDO1 (Homo sapiens, UniProt Q9BQ69); assay: ADPR-1″P hydrolysis; assay type: biochemical; conditions: by MDO1; Fig. 2, TLC
T1 sequence (Q9BQ69 83-325): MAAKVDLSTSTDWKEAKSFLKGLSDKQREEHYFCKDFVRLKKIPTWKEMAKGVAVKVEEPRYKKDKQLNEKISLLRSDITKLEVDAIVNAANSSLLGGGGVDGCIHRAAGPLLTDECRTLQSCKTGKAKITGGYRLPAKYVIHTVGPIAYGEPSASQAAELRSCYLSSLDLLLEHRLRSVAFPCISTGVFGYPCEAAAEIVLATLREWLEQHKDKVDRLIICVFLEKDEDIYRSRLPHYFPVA

MDO2 [2] = biological target: T2, MDO2 (Homo sapiens, UniProt A1Z1Q3); assay: ADPR-1″P hydrolysis; assay type: biochemical; conditions: by MDO2; Fig. 2, TLC
T2 sequence (A1Z1Q3 1-243): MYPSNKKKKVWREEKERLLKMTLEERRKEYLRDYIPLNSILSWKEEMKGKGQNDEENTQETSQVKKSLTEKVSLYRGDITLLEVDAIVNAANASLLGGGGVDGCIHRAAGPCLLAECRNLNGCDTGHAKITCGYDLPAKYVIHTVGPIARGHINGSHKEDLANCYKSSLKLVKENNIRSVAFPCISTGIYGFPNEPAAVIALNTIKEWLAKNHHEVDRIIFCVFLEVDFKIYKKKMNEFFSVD

GDAP2 [3] = biological target: T3, GDAP2 (Homo sapiens, UniProt Q9NXN4); assay: ADPR-1″P hydrolysis; assay type: biochemical; conditions: by GDAP2; Fig. 2, TLC
T3 sequence (Q9NXN4 1-231 isoform Q9NXN4-2): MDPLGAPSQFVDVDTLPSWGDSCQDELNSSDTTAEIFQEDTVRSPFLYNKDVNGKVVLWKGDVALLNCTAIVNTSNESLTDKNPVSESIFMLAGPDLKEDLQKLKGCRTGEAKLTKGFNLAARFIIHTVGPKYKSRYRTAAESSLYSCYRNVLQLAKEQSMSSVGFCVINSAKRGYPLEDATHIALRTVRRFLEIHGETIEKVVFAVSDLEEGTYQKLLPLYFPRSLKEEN

SFV macro (nsP3) [4] = biological target: T4, SFV macro (nsP3) (Semliki forest virus, UniProt P08411); assay: ADPR-1″P hydrolysis; assay type: biochemical; conditions: by SFV nsP3 (167-aa and 328-aa similar); Fig. 2, TLC
T4 sequence (P08411 1337-1503 limits assumed): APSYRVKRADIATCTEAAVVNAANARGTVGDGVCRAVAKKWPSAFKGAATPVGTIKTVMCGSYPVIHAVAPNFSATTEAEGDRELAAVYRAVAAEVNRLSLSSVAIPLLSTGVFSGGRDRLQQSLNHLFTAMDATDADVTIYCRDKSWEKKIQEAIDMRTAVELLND

macro domains = assay: Filter binding with radioactive NAD+ alone
MDO1 [5] = biological target: T1, MDO1; assay type: binding; conditions: MDO1, 500 mM NaCl, data not shown
MDO1 [6] = biological target: T1, MDO1; assay: Competition for poly; assay type: binding; conditions: data not shown
SFV macro = biological target: T5, SFV macro (Semliki forest virus, UniProt P08411); assay: Competition for poly; assay type: binding; conditions: data not shown
T5 sequence (P08411 1337-1495 limits assumed): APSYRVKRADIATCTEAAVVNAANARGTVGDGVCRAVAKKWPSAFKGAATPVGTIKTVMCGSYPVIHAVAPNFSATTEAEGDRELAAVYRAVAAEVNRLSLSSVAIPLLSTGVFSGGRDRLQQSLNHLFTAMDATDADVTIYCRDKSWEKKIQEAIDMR

HEV macro [7] = biological target: T6, HEV macro (Hepatitis E virus genotype 1, UniProt P29324); assay: Competition for poly; assay type: binding; conditions: data not shown
T6 sequence (P29324 775-960): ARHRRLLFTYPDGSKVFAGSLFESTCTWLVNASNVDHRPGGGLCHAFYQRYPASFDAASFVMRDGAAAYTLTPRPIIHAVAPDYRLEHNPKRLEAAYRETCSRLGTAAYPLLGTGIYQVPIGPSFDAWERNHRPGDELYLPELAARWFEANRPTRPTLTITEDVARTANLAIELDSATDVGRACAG

MDO2 [8] = biological target: T2, MDO2; assay: [32P]poly; assay type: binding; conditions: to MDO2; Fig. 3c
GDAP2 [9] = biological target: T3, GDAP2; assay: [32P]poly; assay type: binding; conditions: to GDAP2; Fig. 3c
MDO1 [10] = biological target: T1, MDO1; assay type: binding; conditions: to MDO1; Fig. 3b
MDO2 [11] = biological target: T2, MDO2; assay type: binding; conditions: to MDO2; Fig. 3b
GDAP2 [12] = biological target: T3, GDAP2; assay type: binding; conditions: to GDAP2
Poa1p = biological target: T7, Poa1p (Saccharomyces cerevisiae, UniProt P38218, S2A); assay type: binding; conditions: to Poa1p; Fig. 3b
T7 sequence (P38218 1-177 S2A): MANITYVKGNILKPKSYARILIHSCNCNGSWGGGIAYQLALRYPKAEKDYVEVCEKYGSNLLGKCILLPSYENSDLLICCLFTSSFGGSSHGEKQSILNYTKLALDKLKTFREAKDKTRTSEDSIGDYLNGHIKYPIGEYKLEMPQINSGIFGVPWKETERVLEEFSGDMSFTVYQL

SFV macro (nsP3) [13] = biological target: T4, SFV macro (nsP3); assay type: binding; conditions: to SFV macro; Fig. 3b
HEV macro [14] = biological target: T6, HEV macro; assay type: binding; conditions: to HEV macro; Fig. 3b
MDO1 G182Y + G270Y = biological target: T8, MDO1 G182Y + G270Y (Homo sapiens, UniProt Q9BQ69, G182Y/G270Y); assay type: binding; conditions: filter washed with 1 M NaCl, not shown
T8 sequence (Q9BQ69 83-325 G182Y/G270Y): T1 sequence (Q9BQ69 83-325) with G100Y, G188Y

macro proteins = assay type: biochemical
[15] = monomeric ADP-ribose 1500-fold excess
[16] = molar excess of poly(A) ∼ 400-fold

In the case of `Nc1ncnc2c1ncn2[C@@H]1O[C@H](COP(=O)(O)OP(=O)(O)OC[C@H]2O[C@H](OP(=O)(O)O)[C@H](O)[C@@H]2O)[C@@H](O)[C@H]1O` [ADPR-1″P, ADP-ribose-1″ phosphate], the “ADPR-1″P hydrolysis (in words)” value (MDO1 [1]) is reported as “equally efficiently as yeast Poa1p”, the “ADPR-1″P hydrolysis (in words)” value (MDO2 [2]) is reported as “equally efficiently as yeast Poa1p” and the “ADPR-1″P hydrolysis (in words)” value (GDAP2 [3]) is reported as “inactive”. For the same molecule, the “ADPR-1″P hydrolysis (in words)” value (SFV macro (nsP3) [4]) was “only a minor activity”.

`NC(=O)c1ccc[n+]([C@@H]2O[C@H](COP(=O)([O-])OP(=O)(O)OC[C@H]3O[C@@H](n4cnc5c(N)ncnc54)[C@H](O)[C@@H]3O)[C@@H](O)[C@H]2O)c1` [NAD ^+] was tested, and the “radioactive signal on filter-bound macro domains” value (macro domains) was “no radioactive signal”.

For ADP-ribose, the “dissociation constant in high-salt buffer versus standard conditions” value (MDO1 [5]) was “approximately twofold”, the “competition for the binding of poly(ADP-ribose)” value (from here on “competition for the binding”) (MDO1 [6]; [15]) was “no competition” and the “competition for the binding” value (SFV macro; [15]) was “no competition”. The “competition for the binding” value (HEV macro [7]; [15]) was “no competition”.

In the case of poly(A), the “poly(A) binding (in words)” value (MDO2 [8]) is reported as “did not bind poly(A)”, the “poly(A) binding (in words)” value (GDAP2 [9]) is reported as “bound poly(A)” and the “competition for the binding” value (MDO1 [6]; [16]) is reported as “no competition”. For the same molecule, the “competition for the binding” value (SFV macro; [16]) was “no competition” and the “competition for the binding” value (HEV macro [7]; [16]) was “no competition”.

In the case of poly(ADP-ribose), the “poly(ADP-ribose) binding (in words)” value (MDO1 [10]) is reported as “bound poly(ADP-ribose)”, the “poly(ADP-ribose) binding (in words)” value (MDO2 [11]) is reported as “did not show effective binding” and the “poly(ADP-ribose) binding (in words)” value (GDAP2 [12]) is reported as “inefficient”. The “poly(ADP-ribose) binding (in words)” value (Poa1p) was “did not show effective binding”, the “poly(ADP-ribose) binding (in words)” value (SFV macro (nsP3) [13]) was “bound poly(ADP-ribose) effectively” and the “poly(ADP-ribose) binding (in words)” value (HEV macro [14]) was “bound poly(ADP-ribose) effectively”. For the same molecule, the “poly(ADP-ribose) binding after stringent wash” value (MDO1 G182Y + G270Y) was “did not have an effect on poly(ADP-ribose) binding” and the “poly(ADP-ribose) hydrolysis activity” value (macro proteins) was “None of the macro proteins degraded poly(ADP-ribose)”.
